From US11426347B2, “Food for improving intraintestinal environment” (AJINOMOTO CO., INC., priority 2017, dated 2022)

Assays:
Assay type in all cases: cell-based
bifidobacteria [1] = assay: Experimental Example 1-2: addition test of amino acid and fructo-oligosaccharide to human feces suspension; details: amino acid added together with 0.5% FOS, compared with FOS alone; human feces suspension in PBS, 4 days; quantitative PCR
Procedure: (§1) Thereafter, 10 ml of each solution was dispensed into glass vials and the glass vials were sterilized by autoclave, made anaerobic, and sealed with a butyl rubber stopper. The feces suspension was prepared by collecting about 10 g of feces from 3 healthy individuals (one man and two women) in their 20 s to 40 s and suspending same in 80 ml of anaerobic PBS. The feces suspension was added to each vial by 0.5 ml, placed in an incubator at 37° C., and anaerobically cultured for 4 days with tumble blending once per day. After completion of the culture, an intestinal bacterial pellet was obtained from the entire amount of the culture medium by centrifugation (8,000×g, 5 min). DNA was extracted from this pellet using ISOFECAL for BeadsBeat (manufactured by NIPPON GENE CO., LTD.), and quantitative PCR was performed using GeneAce SYBR qPCR Mix α (manufactured by NIPPON GENE CO., LTD.). Quantitative PCR was performed under the conditions of 45 cycles of 95° C. for 30 sec and 60° C. for 60 sec after 95° C. for 10 min. Primers for quantitative PCR used for detection bifidobacteria are as follows.
The PBS solutions for the Examples and Comparative Examples shown in Table 1-2 were prepared and used as media for a feces culture. […]
(§2) Using the results obtained by quantitative PCR, the relative amount when the control is 1 was calculated, and the results were normalized with z-score.

bifidobacteria [2] = assay: Experimental Example 2: addition test of amino acid and galacto-oligosaccharide to human feces suspension; details: amino acid added together with 0.5% GOS, compared with GOS alone; human feces suspension in PBS, 4 days; quantitative PCR
Procedure: as §1
The PBS solutions for the Examples and Comparative Examples shown in Table 2 were prepared and used as media for feces culture. […]
as §2

bifidobacteria [3] = assay: Experimental Example 1-1: addition of amino acid and fructo-oligosaccharide to human feces suspension, anaerobic culture, quantitative PCR of bifidobacteria; details: amino acid added together with 0.5% FOS, compared with FOS alone, human feces suspension in PBS, 37° C., 4 days
Procedure: The PBS solutions for the Examples and Comparative Examples shown in Table 1-1 were prepared and used as media for a feces culture. PBS alone was used as a control. Fructo-oligosaccharide (FOS) manufactured by Wako Pure Chemical Industries, Ltd. (#064-02385) was used.
as §1, §2

O=C(O)[C@@H]1CCCN1 [Pro, L-proline] was tested, and the proliferation of bifidobacteria (bifidobacteria [1]) was “greater proliferation of bifidobacteria than that with FOS alone”.

With NCCCC[C@H](N)C(=O)O [Lys, L-lysine] the proliferation of bifidobacteria (bifidobacteria [2]) was “greater proliferation of bifidobacteria than that with GOS alone” and the proliferation of bifidobacteria (bifidobacteria [3]) was “greater proliferation of bifidobacteria than that with FOS alone”.

In the case of NC(=O)CC[C@H](N)C(=O)O [Gln, L-glutamine], the proliferation of bifidobacteria (bifidobacteria [3]) is reported as “greater proliferation of bifidobacteria than that with FOS alone”.

With CC[C@H](C)[C@H](N)C(=O)O [Ile, L-isoleucine] the proliferation of bifidobacteria (bifidobacteria [3]) was “greater proliferation of bifidobacteria than that with FOS alone”.

CC(C)[C@H](N)C(=O)O [Val, L-valine] was tested, and the proliferation of bifidobacteria (bifidobacteria [3]) was “greater proliferation of bifidobacteria than that with FOS alone”.

In the case of N[C@@H](CCC(=O)O)C(=O)O [Glu, L-glutamic acid], the proliferation of bifidobacteria (bifidobacteria [2]) is reported as “greater proliferation of bifidobacteria than that with GOS alone” and the proliferation of bifidobacteria (bifidobacteria [3]) is reported as “greater proliferation of bifidobacteria than that with FOS alone”.

C[C@H](N)C(=O)O [Ala, L-alanine] was tested, and the proliferation of bifidobacteria (bifidobacteria [3]) was “greater proliferation of bifidobacteria than that with FOS alone”.

With N[C@@H](Cc1c[nH]cn1)C(=O)O [His, L-histidine] the proliferation of bifidobacteria (bifidobacteria [1]) was “greater proliferation of bifidobacteria than that with FOS alone”.
